In US20070107074A1, “Porcine Nuclear Transfer” (Garelag Pty Ltd., priority 1998, published 2007):

Key:
[1] = system: porcine blastomere nuclei; assay: Metaphase arrest induced in porcine blastomere nuclei following treatment with nocodazole; format: cell-based
From the text: Preferably, karyoplasts may be synchronized at the G1 state using a DNA synthesis inhibitor and/or use of a microtubule inhibitor which, on following removal of the inhibitor(s), results in synchronization of the karyoplast at the G1 state, or by means other than DNA inhibition, excluding serum starvation, for example cdk kinase inhibitors such as Butyrolactone I (Motlik et al (1998) Theriogeneology 49: 461-469). Examples of DNA synthesis inhibitors include: aphidicolin, hydroxyurea, cytosine arabinoside, 5-fluorouracil, n-ethylmalemide and etoposide. Any microtubule inhibitor may be used in this invention including nocodazole, colchecine or colcemid. Alternatively, a microtubule stabilizer such as, for example, taxol may be used. Karyoplasts may, for example, be synchronized at G1 by the use of a microtubule inhibitor such as nocodazole (to give a population of nuclei at the metaphase) followed by treatment with a DNA synthesis inhibitor such as aphidicolin in which the nuclei progress to an arrest at the G1 state. […] Karyoplasts may be synchronized in the Go state by nutrient deprivation, such as incubation in a low serum containing medium, as is known in the art, or by chemical treatment. Donor karyoplasts (such as cells) may be incubated in a standard culture medium with a DNA synthesis inhibitor and/or microtubule inhibitor for a time sufficient to synchronize the cells at the G1 state. This can be readily observed by microscopic observations. DNA synthesis inhibitors and/or microtubule inhibitors may be used, for example, in an amount of from about 0.01 μg/ml to about 50 μg/ml, such as about 1-5 μg/ml culture medium. Microtubule inhibitors fix the cells at the M phase. After removal of microtubule inhibitor from the cell media, which can conveniently be done by washing the cells, cells pass to the G1 phase after about 30 minutes to 6 hours in a uniform manner such that a plurality of cells in the G1 phase can be conveniently prepared. A DNA synthesis inhibitor synchronises cells at the G1 phase. Removal of a DNA synthesis inhibitor from cell media allows the cell cycle to proceed. Similarly donor karyoplasts may be synchronized in the G0 state as described above.

porcine morulae = assay: In vitro development of porcine morulae following NZ treatment; format: cell-based; conditions: 15 h
Protocol: In vitro culture of oocytes, embryos and nuclear transfer embryos was conducted in 25 μl droplets of Whitten's medium (Whitten W K, 1971, in G Raspe, ed Advances in the Biosciences, Pergamon Press: Oxford, pp 129-141) supplemented with 15 mg/ml bovine serum albumin (BSA) under paraffin oil in a plastic petrie dish under an atmosphere of 5% CO2, 5% O2 and 90% N2 in humidified air at […].

COC(=O)Nc1nc2ccc(C(=O)c3cccs3)cc2[nH]1 [NZ, nocodazole] was tested, and the “Blastomeres at M” value ([1]; 4 h exposure, NZ 1 μg/ml) was “(24%)”, the “Blastomeres at M” value ([1]; 4 h exposure, NZ 1 μg/ml, number at M/total) was 14/58 and the “Blastomeres at M” value ([1]; 7 h exposure, NZ 1 μg/ml) was “(41%)”. For the same compound, the “Blastomeres at M” value ([1]; 7 h exposure, NZ 1 μg/ml, number at M/total) was 54/133, the “Blastomeres at M” value ([1]; 15 h exposure, NZ 0.5 μg/ml) was “(76%)” and the “Blastomeres at M” value ([1]; 15 h exposure, NZ 0.5 μg/ml, number at M/total) was 101/133. For the same compound, the “Blastomeres at M” value ([1]; 15 h exposure, NZ 1 μg/ml) was “(96%)”, the “Blastomeres at M” value ([1]; 15 h exposure, NZ 1 μg/ml, number at M/total) was 257/267 and the Development to blastocyst (porcine morulae; NZ 0.5 μg/ml, 3 repeats) was 70%. The Development to blastocyst (porcine morulae; NZ 0.5 μg/ml, 3 repeats, number of blastocysts/total) was 14/20, the Development to blastocyst (porcine morulae; NZ 1 μg/ml, 4 repeats) was 57% and the Development to blastocyst (porcine morulae; NZ 1 μg/ml, 4 repeats, number of blastocysts/total) was 17/30.
